Results from patent publication US9604933B2, “Pyrazolochalcones as potential anticancer agents” (COUNCIL OF SCIENTIFIC AND INDUSTRIAL RESEARCH, priority 2013, dated 2017).
Read-outs that look alike come from different tables or passages of the source.

Experiments:
Ovarian = experiment: NCI SRB cytotoxicity, ovarian panel average; assay type: cell-based, human; conditions: average of cell lines
Experimental: (§1) The pyrazolochalcones (7e, 8e, 10e, 11e, 12e, 13e and 8f) have been tested against fifty nine human tumor cell lines derived from nine cancer types (leukemia, non-small cell lung cancer, colon cancer, CNS cancer, melanoma, ovarian cancer, renal cancer, prostate cancer and breast cancer) as per the NCI protocol. For each compound, dose response curves for individual cell lines have been measured at a minimum of five concentrations at 10 fold dilutions. A protocol of 48 h continuous drug exposure has been used, and a sulforhodamine B (SRB) protein assay has been used to estimate cell viability or growth. The concentration for 50% cell growth inhibition (GI50), 50% cell death (LC50, 50% growth) and total cell growth inhibition (TGI, 0% growth) values were tabulated (Table-1). DMSO was used as control to calculate the values of GI50, LC50 and TGI. The compounds 7e, 8e, 10e, 11e, 12e, 13e and 8f has been evaluated for their in vitro cytotoxicity in […] cell lines from nine human cancer types of leukemia (K-562, SR), non-small cell lung (Hop-62, NCI-H226, NCI-H522), colon (HCT-116, HCT-15, HCC-2998), CNS (SF-539), melanoma (SK-MEL-5, UACC-62, M14), ovarian (IGROV1), renal (A498), prostate (PC3) and breast (BT-549, MDA-MB-435, HS578T) origin. The results are expressed as percent of cell growth determined relative to that of untreated control cells (Table 2).
(§2) Each cancer type represents the average of six to eight different cancer cell lines.

Renal = experiment: NCI SRB cytotoxicity, renal panel average; assay type: cell-based, human; conditions: average of cell lines
Experimental: as §1, §2

786-0 = experiment: NCI SRB cytotoxicity, renal 786-0; assay type: cell-based; conditions: Homo sapiens, 48 h exposure
Experimental: as §1

NCI-H23 = experiment: NCI SRB cytotoxicity, non-small cell lung NCI-H23; assay type: cell-based; conditions: Homo sapiens, 48 h exposure
Experimental: as §1

BT-549 = experiment: NCI SRB cytotoxicity, breast BT-549; assay type: cell-based; conditions: Homo sapiens, 48 h exposure
Experimental: as §1

NCIH322M = experiment: NCI SRB cytotoxicity, non-small cell lung NCIH322M; assay type: cell-based; conditions: Homo sapiens, NCI-H322M, 48 h exposure
Experimental: as §1

TK-10 = experiment: NCI SRB cytotoxicity, renal TK-10; assay type: cell-based; conditions: Homo sapiens, 48 h exposure
Experimental: as §1

Prostate = experiment: NCI SRB cytotoxicity, prostate panel average; assay type: cell-based, human; conditions: average of cell lines
Experimental: as §1, §2

human tumor cell lines = experiment: NCI SRB cytotoxicity, all fifty nine human tumor cell lines; assay type: cell-based; design: Log10 TGI mean graph midpoint (MG_MID): unit not given here; conditions: for GI50: Homo sapiens
Experimental: as §1
The mean graph midpoint values of Log10 TGI and Log10 LC50 as well as Log10 GI50 for compounds 7e, 8e, 10e, 11e, 12e, 13e and 8f is listed in Table-3. […] The mean graph mid points of Log10 TGI and Log10, LC50 have shown similar pattern to the log10 GI50 mean graph mid points.

NCI/ADR-RES = experiment: NCI SRB cytotoxicity, ovarian NCI/ADR-RES; assay type: cell-based; conditions: Homo sapiens, 48 h exposure
Experimental: as §1

SK-MEL-5 = experiment: NCI SRB cytotoxicity, melanoma SK-MEL-5; assay type: cell-based; conditions: Homo sapiens, 48 h exposure
Experimental: as §1

SW-620 = experiment: NCI SRB cytotoxicity, colon SW-620; assay type: cell-based; conditions: Homo sapiens, 48 h exposure
Experimental: as §1

A498 = experiment: NCI SRB cytotoxicity, renal A498; assay type: cell-based; conditions: Homo sapiens, 48 h exposure
Experimental: as §1

Breast = experiment: NCI SRB cytotoxicity, breast panel average; assay type: cell-based, human; conditions: average of cell lines
Experimental: as §1, §2

IGROV1 = experiment: NCI SRB cytotoxicity, ovarian IGROV1; assay type: cell-based; conditions: Homo sapiens, IGROV-1, 48 h exposure
Experimental: as §1

KM12 = experiment: NCI SRB cytotoxicity, colon KM12; assay type: cell-based; conditions: Homo sapiens, 48 h exposure
Experimental: as §1

NCI-H226 = experiment: NCI SRB cytotoxicity, non-small cell lung NCI-H226; assay type: cell-based; conditions: Homo sapiens, 48 h exposure
Experimental: as §1

CNS = experiment: NCI SRB cytotoxicity, CNS panel average; assay type: cell-based, human; conditions: average of cell lines
Experimental: as §1, §2

OVCAR-5 = experiment: NCI SRB cytotoxicity, ovarian OVCAR-5; assay type: cell-based; conditions: Homo sapiens, 48 h exposure
Experimental: as §1

Leukemia = experiment: NCI SRB cytotoxicity, leukemia panel average; assay type: cell-based, human; conditions: average of cell lines
Experimental: as §1, §2

UO-31 = experiment: NCI SRB cytotoxicity, renal UO-31; assay type: cell-based; conditions: Homo sapiens, 48 h exposure
Experimental: as §1

HL-60(TB) = experiment: NCI SRB cytotoxicity, leukemia HL-60(TB); assay type: cell-based; conditions: Homo sapiens, 48 h exposure
Experimental: as §1

MOLT-4 = experiment: NCI SRB cytotoxicity, leukemia MOLT-4; assay type: cell-based; conditions: Homo sapiens, 48 h exposure
Experimental: as §1

T-47D = experiment: NCI SRB cytotoxicity, breast T-47D; assay type: cell-based; conditions: Homo sapiens, T47D, 48 h exposure
Experimental: as §1

RPMI-8226 = experiment: NCI SRB cytotoxicity, leukemia RPMI-8226; assay type: cell-based; conditions: Homo sapiens, 48 h exposure
Experimental: as §1

HCT-15 = experiment: NCI SRB cytotoxicity, colon HCT-15; assay type: cell-based; conditions: Homo sapiens, 48 h exposure
Experimental: as §1

A549/ATCC = experiment: NCI SRB cytotoxicity, non-small cell lung A549/ATCC; assay type: cell-based; conditions: Homo sapiens, 48 h exposure
Experimental: as §1

MDA-MB-435 = experiment: NCI SRB cytotoxicity, breast panel MDA-MB-435; assay type: cell-based; conditions: Homo sapiens, 48 h exposure
Experimental: as §1

Colon = experiment: NCI SRB cytotoxicity, colon panel average; assay type: cell-based, human; conditions: average of cell lines
Experimental: as §1, §2

ACHN = experiment: NCI SRB cytotoxicity, renal ACHN; assay type: cell-based; conditions: Homo sapiens, 48 h exposure
Experimental: as §1

MCF7 = experiment: NCI SRB cytotoxicity, breast MCF7; assay type: cell-based; conditions: Homo sapiens, 48 h exposure
Experimental: as §1

HOP-62 = experiment: NCI SRB cytotoxicity, non-small cell lung HOP-62; assay type: cell-based; conditions: Homo sapiens, 48 h exposure
Experimental: as §1

MDA-MB-231/ATCC = experiment: NCI SRB cytotoxicity, breast MDA-MB-231/ATCC; assay type: cell-based; conditions: Homo sapiens, 48 h exposure
Experimental: as §1

RXF 393 = experiment: NCI SRB cytotoxicity, renal RXF 393; assay type: cell-based; conditions: Homo sapiens, 48 h exposure
Experimental: as §1

[1] = Homo sapiens, read-out: Log10 GI50 (concentration in mol/L causing 50% growth inhibition) (converted)
[2] = Homo sapiens, read-out: Log10 LC50 (concentration in mol/L causing 50% cell death) (converted)

SMILES: COc1cc(C(=O)/C=C/c2cc(-c3cc(OC)c(OC)c(OC)c3)n[nH]2)cc(OC)c1OC [10e, (E)-1-(3,4,5-trimethoxyphenyl)-3-(3-(3,4,5-trimethoxyphenyl)-1H-pyrazol-5-yl)prop-2-en-1-one]
- GI50 (Ovarian; [1]): 2190 nM
- CC50 (Ovarian; [2]): 14500 nM
- Log10 TGI (concentration in mol/L causing total growth inhibition (0% growth)) (Ovarian): −5.23 mol/L
- GI50 (Renal; [1]): 1580 nM
- CC50 (Renal; [2]): 7590 nM
- Log10 TGI (concentration in mol/L causing total growth inhibition (0% growth)) (Renal): −5.45 mol/L
- GI50 (786-0): 1560 nM
- GI50 (NCI-H23): 3040 nM
- GI50 (BT-549): 1570 nM
- GI50 (NCIH322M): 2000 nM
- GI50 (TK-10): 1460 nM
- GI50 (Prostate; [1]): 1480 nM
- CC50 (Prostate; [2]): 7410 nM
- Log10 TGI (concentration in mol/L causing total growth inhibition (0% growth)) (Prostate): −5.48 mol/L
- GI50 (human tumor cell lines; across fifty nine cell lines in nine cell panels, read-out: GI50 value range): 180 to 29200 nM
- GI50 (human tumor cell lines; against human tumor cell lines, read-out: Log10 GI50 mean graph midpoint (MG_MID) (converted)): 1550 nM
- cytotoxicity (human tumor cell lines; against cancer cell lines, in words): significant cytotoxicity
- Log10 TGI mean graph midpoint (MG_MID) (human tumor cell lines; against human tumor cell lines): −5.36
- LC50 (human tumor cell lines; against human tumor cell lines, read-out: Log10 LC50 mean graph midpoint (MG_MID) (converted)): 11500 nM
- GI50 (NCI/ADR-RES): 3470 nM
- GI50 (SK-MEL-5): 1570 nM
- GI50 (SW-620): 1590 nM
- GI50 (A498): 1610 nM
- GI50 (Breast; [1]): 1350 nM
- CC50 (Breast; [2]): 10000 nM
- Log10 TGI (concentration in mol/L causing total growth inhibition (0% growth)) (Breast): −5.35 mol/L
- GI50 (IGROV1): 3140 nM
- GI50 (KM12): 1490 nM
- GI50 (NCI-H226): 1600 nM
- GI50 (CNS; [1]): 1620 nM
- LC50 (CNS; [2]): 7940 nM
- Log10 TGI (concentration in mol/L causing total growth inhibition (0% growth)) (CNS): −5.46 mol/L
- GI50 (OVCAR-5): 1640 nM
- GI50 (Leukemia; [1]): 1200 nM
- CC50 (Leukemia; [2]): 0.0001 mol/L
- Log10 TGI (concentration in mol/L causing total growth inhibition (0% growth)) (Leukemia): −4.80 mol/L
- GI50 (UO-31): 1190 nM
- GI50 (HL-60(TB)): 1930 nM
- GI50 (MOLT-4): 2320 nM
- GI50 (T-47D): 1130 nM
- GI50 (RPMI-8226): 310 nM
- GI50 (HCT-15): 1500 nM
- GI50 (A549/ATCC): 2720 nM
- GI50 (MDA-MB-435): 1150 nM
- GI50 (Colon; [1]): 1620 nM
- LC50 (Colon; [2]): 6030 nM
- Log10 TGI (concentration in mol/L causing total growth inhibition) (Colon): −5.50 mol/L
- GI50 (ACHN): 1620 nM
- GI50 (MCF7): 640 nM
- GI50 (HOP-62): 1460 nM
- GI50 (MDA-MB-231/ATCC): 1520 nM
- GI50 (RXF 393): 1260 nM
